Like-named read-outs stand apart in the source and are kept apart here.
Legend:
[1] = tested on: OVCAR3 cells; test: Cellular proliferation EdU assay, OVCAR3; format: cell-based, human; conditions: Homo sapiens, OVCAR-3, 48 h, EdU assay, two days; read-out: OVCAR3 IC50
Procedure, shortened: (§1)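 MCF-7 (800 cells/well) and OVCAR3 (1200 cells/well) in RPMI with 10% FBS exposed to compounds for two days at 37 °C.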

[2] = molecular target: CDK2:CCNE1 (Homo sapiens (Human), UniProt P24941); test: NanoBRET assay in MCF-7 cells, CDK2; format: cell-based; conditions: transfected MCF-7 cells, 2 hours, n = 1 or average
Procedure, shortened: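 In live MCF-7 cells, compound added followed by NanoBRET TE Tracer K-9 (stock 200 μM) for CDK2, 2 h at 37° C, 5% CO2.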

[3] = tested on: NPM phosphorylation (Thr199, CDK2-cyclin E complex); test: NPM phosphorylation imaging assay in MCF-7 cells; format: cell-based; conditions: Homo sapiens, MCF7, 2 h, 4N DNA cells
Procedure, shortened: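 MCF-7 cells were fixed, permeabilised and immunostained, then imaged for phospho-NPM (Thr199), a CDK2-cyclin E site. Analysis was gated on 4N-DNA cells by Hoechst staining. Signals were normalised to controls and fitted for IC50.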

[4] = tested on: OVCAR3 cells; test: Cell proliferation CyQUANT assay, OVCAR3; format: cell-based; conditions: Homo sapiens, OVCAR-3, 168 h; CyQUANT cell counts, 7 days
Description: (§2) An imaging-based assay was used to investigate changes in cell number in OVCAR3 cells (CCNE1-amplified ovarian cancer cell line) and SKOV3 cells (non-amplified ovarian cancer cell line) treated with test compounds.
(§3) Cells were plated in 384 well plates (Perkin-Elmer 6057300) in RPMI-1640/10% FBS/1× L-Glu at 500 cells per well in 30 μL and incubated with test compound at 37° C. and 5% CO2 for 7 days. Cells were then stained using the CyQuant Direct Cell Proliferation Assay Kit (Thermo Cat #C7026) in accordance with the kit protocol. The stained cells were imaged using an Operetta high content imager to generate cell counts and IC50 values were calculated relative to DMSO controls.

[5] = molecular target: CDK4:CCND1 (Homo sapiens (Human), UniProt P11802); test: NanoBRET assay in MCF-7 cells, CDK4; format: cell-based; conditions: NanoBRET, transfected MCF-7 cells, 2 hours; n = 1 or average; read-out: CDK4 IC50
Sequence of CDK4:CCND1 (P11802 whole entry): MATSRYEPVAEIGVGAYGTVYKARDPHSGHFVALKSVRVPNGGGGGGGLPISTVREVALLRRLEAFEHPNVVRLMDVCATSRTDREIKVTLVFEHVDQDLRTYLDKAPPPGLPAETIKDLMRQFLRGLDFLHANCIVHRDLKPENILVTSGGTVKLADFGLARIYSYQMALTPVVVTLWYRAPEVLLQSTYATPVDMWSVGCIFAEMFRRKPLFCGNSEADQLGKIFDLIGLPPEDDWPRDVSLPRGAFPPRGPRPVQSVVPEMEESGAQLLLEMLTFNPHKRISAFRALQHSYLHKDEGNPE
Sequence of CDK4:CCND1 (P24385 whole entry partner): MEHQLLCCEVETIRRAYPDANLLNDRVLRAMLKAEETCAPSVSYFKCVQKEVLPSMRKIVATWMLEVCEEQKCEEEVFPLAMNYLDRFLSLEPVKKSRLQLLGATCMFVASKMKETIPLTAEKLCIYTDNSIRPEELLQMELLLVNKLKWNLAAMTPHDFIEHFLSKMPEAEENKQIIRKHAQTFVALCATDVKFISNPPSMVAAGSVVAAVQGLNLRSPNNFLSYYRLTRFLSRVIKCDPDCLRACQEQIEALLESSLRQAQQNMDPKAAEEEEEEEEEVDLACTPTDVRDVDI
Procedure, shortened: (§4)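 Intracellular target engagement was measured by NanoBRET ratio (460 nm/610 nm) in live MCF-7 cells transiently carrying CDK4:CCND1 (Tracer K-7, 100 μM stock) or CDK1:CCNB1 (Tracer K-9, 400 μM stock).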

[6] = tested on: POLR2A Ser2 phosphorylation (CDK9); test: POLR2A Ser2 phosphorylation imaging assay in MCF-7 cells; format: cell-based; conditions: Homo sapiens, MCF7, 2 h, read-out: POLR2A Ser2 phosphorylation IC50
Procedure, shortened: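 MCF-7 cells were fixed, permeabilised and immunostained for POLR2A phospho-Ser2, then imaged by high-content microscopy. Levels were normalised to controls and IC50 values derived.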

[7] = molecular target: CDK1:CCNB1 (Homo sapiens (Human), UniProt P06493); test: NanoBRET assay in MCF-7 cells, CDK1; format: cell-based; conditions: NanoBRET, transfected MCF-7 cells, 2 hours; n = 1 or average; read-out: CDK1 IC50
Sequence of CDK1:CCNB1 (P06493 whole entry): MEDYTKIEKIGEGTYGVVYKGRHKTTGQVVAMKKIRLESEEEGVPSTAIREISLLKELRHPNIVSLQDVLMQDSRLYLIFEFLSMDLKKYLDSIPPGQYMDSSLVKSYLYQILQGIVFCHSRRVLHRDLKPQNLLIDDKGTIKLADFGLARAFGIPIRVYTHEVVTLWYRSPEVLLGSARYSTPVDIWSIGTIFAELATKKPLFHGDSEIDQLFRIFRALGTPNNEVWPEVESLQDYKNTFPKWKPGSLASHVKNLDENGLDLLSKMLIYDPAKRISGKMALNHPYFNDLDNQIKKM
Sequence of CDK1:CCNB1 (P14635 whole entry partner): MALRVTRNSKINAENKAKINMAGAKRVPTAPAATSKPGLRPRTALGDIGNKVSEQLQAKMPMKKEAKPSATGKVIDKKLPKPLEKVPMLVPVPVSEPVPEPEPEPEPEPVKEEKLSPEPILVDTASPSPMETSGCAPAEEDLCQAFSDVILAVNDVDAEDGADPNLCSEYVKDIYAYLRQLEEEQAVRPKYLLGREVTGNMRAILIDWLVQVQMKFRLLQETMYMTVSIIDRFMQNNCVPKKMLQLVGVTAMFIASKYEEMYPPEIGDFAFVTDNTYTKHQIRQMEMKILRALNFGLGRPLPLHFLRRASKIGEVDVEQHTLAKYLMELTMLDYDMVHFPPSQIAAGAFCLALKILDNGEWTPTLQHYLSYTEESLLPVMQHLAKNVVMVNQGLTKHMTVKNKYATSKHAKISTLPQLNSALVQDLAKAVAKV
Procedure, shortened: as §4

[8] = tested on: SKOV3 cells; test: Cell proliferation CyQUANT assay, SKOV3; format: cell-based; conditions: Homo sapiens, SK-OV-3, 168 h; CyQUANT cell counts, 7 days
Description: as §2, §3

[9] = molecular target: 379 non-CDK kinase (or non-CDK kinase-complex) targets; test: Kinase profiling (SelectScreen, ThermoFisher); format: biochemical; conditions: compared with Compound 6
Source text: Test compounds were profiled against a broad panel of kinases at ThermoFisher Scientific using the SelectScreen Kinase Profiling Services. Each kinase assay used one of the following assay technology protocols: • 1) Z-LYTE™ Screening Protocol and Assay Conditions (Revised 23 Jan. 2018 version) available at http://assets.thermofisher.com/TFS-Assets/BID/Methods-&-Protocols/20180123_SSBK_Customer_Protocol_and_Assay_Conditions.pdf; • 2) Adapta™ Screening Protocol and Assay Conditions (Revised 23 Jan. 2018 version) available at http://assets.thermofisher.com/TFS-Assets/BID/Methods-&-Protocols/20180123_SSBK_Adapta_Customer_Protocol_and_Assay_Conditions.pdf; or • 3) LanthaScreen™ Eu Kinase Binding Assay Screening Protocol and Assay Conditions (Revised 23 Jan. 2018 version) available at http://assets.thermofisher.com/TFS-Assets/BID/Methods-&-Protocols/20180123_SSBK_LanthaScreen_Binding_Customer_Protocol_and_Assay_Co nditions.pdf.

[10] = tested on: MCF-7 cells; test: Cellular proliferation EdU assay, MCF-7; format: cell-based; conditions: Homo sapiens, MCF7, 48 h, EdU assay, two days; read-out: MCF-7 IC50
Procedure, shortened: as §1

[11] = tested on: OVCAR3 cells; test: Effect on cell cycle in OVCAR3 cell line (flow cytometry); format: cell-based, human; conditions: 20 to 24 hours, 0.03, 0.1, 0.3, 1, and 3 μM
Description: Compounds were tested in the CCNE1-amplified ovarian cell line OVCAR3 to assess their effect on cell cycle phases G1 and S and potential off-target effects on cell cycle phases G2 and M.
OVCAR3 cells were seeded at 60,000 cells per well in 24 well plates, 4 wells per sample, in RPMI with 10% Fetal bovine serum. Test compounds were diluted in 96 well plates in dimethyl sulfoxide (DMSO) and then added to the wells containing the cells. The 24 well plates were placed in an incubator maintained at 37° C. and 5% CO2 and incubated for 20 to 24 hours. The next day an EdU assay was performed following the manufacturer's protocol (Thermo Fisher, C10425 EdU Alexa Fluor 488). Antibody staining was carried out using PE Mouse Anti-Cleaved PARP (BD Biosciences Catalog No. 552933) and 4′,6-diamidino-2-phenylindole (DAPI). Cells were then analyzed by flow cytometry.

[12] = tested on: OVCAR3 human ovarian cancer xenograft; test: Anti-tumor effect in CCNE1 amplified ovarian xenograft model OVCAR3; format: in vivo, mice
Description: 15 Million OVCAR3 human ovarian cells were implanted subcutaneously in the right flank of female CB17 SCID mice. Mice were randomized into groups of 8 when average tumor volume reached approximately 160 mm^3. […] Palbociclib was dosed orally once daily.

[13] = Aqueous thermodynamic solubility, shake-flask; format: physicochemical; conditions: aqueous phosphate buffer, 25 °C, pH 7.4, aqueous buffer, thermodynamic from solid, phosphate buffer 0.1 M, pH 7.4, 24 hours
Procedure, shortened: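 After 24 h stirring at 25° C. in pH 7.4 phosphate buffer (0.1 M), solid-free supernatant from two centrifugations was quantified by UPLC/MS/MS after dilution in water. Compound was added as dried material after DMSO removal.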

[14] = tested on: 97 targets (GPCRs, ion channels, transporters, enzymes, kinases); test: Secondary pharmacology panel (Eurofins CEREP); conditions: compared with Compound 6
Description: Secondary pharmacology assays were performed at Eurofins CEREP using standard experimental techniques. Specifically, radioligand binding assays were used to assess the ability of test compounds to interact with G-protein coupled receptors (GPCRs), ion channels, and transmembrane transporters. Assays measuring substrate turnover or phosphorylation by isolated proteins were used for enzyme and kinase targets, allowing direct determination of the mode of action of the tested compounds.

[15] = tested on: OVCAR3 cells; test: Senescence β-galactosidase assay, OVCAR3; format: cell-based, human; conditions: 5 days, single agent
Description: Cells were then stained with a fluorescent dye to detect senescence-associated β-galactosidase (CellEvent Senescence Green detection kit, Thermo #C10850), diluted 1:1000 in the provided buffer, and incubated at 37° C. for 2 hours without CO2 in accordance with the manufacturer's instructions. DNA staining was performed using Hoechst 33342, diluted 1:2500 in PBS, for 15 minutes at room temperature, followed by two washes with PBS. Sample imaging was performed on a PerkinElmer Operetta CLS at lOX magnification to detect Hoechst 33342 (nuclei) and Alexa488 (senescence stain). Image analysis was performed in Harmony 4.1 software (PerkinElmer) to identify cells based on nuclear staining. Mean Alexa488 fluorescence intensity was measured within each cell, and the average was taken across all cells observed within each well. […] Data fitting was performed using Genedata Screener (Genedata AG) and combination effect was assessed using the highest single agent (HSA) model.

[16] = tested on: CTG-3283 human CDK4/6 resistant ER+ breast cancer xenograft; test: Anti-tumor effect in CTG-3283 CDK4/6 resistant ER+ breast cancer xenograft model; format: in vivo, mice; conditions: Palbociclib at 50 mg/kg orally once daily, 28 days
Description: CTG-3283 ER+ breast xenograft tumors were harvested from donor mice and cut into fragments approximately 50 mm^3 in volume and then reimplanted adjacent to the #3 mammary fat pad.
CTG-3283 ER+ Breast PDX fragments were implanted orthotopically adjacent to the #3 mammary fat pad using a 10-gauge trocar in female NSG mice. […] Palbociclib was dosed orally once daily.

[17] = tested on: CTG-3298 human CDK4/6 resistant ER+ breast cancer xenograft; test: Anti-tumor effect in CTG-3298 CDK4/6 resistant ER+ breast cancer xenograft model; format: in vivo, mice; conditions: Palbociclib at 50 mg/kg orally once daily, 28 days
Description: CTG-3298 ER+ breast xenograft tumors were harvested from donor mice and cut into fragments approximately 50 mm^3 in volume and then reimplanted adjacent to the #3 mammary fat pad.
CTG-3298 ER+ Breast PDX fragments were implanted orthotopically adjacent to the #3 mammary fat pad using a 10-gauge trocar in female NSG mice. […] Palbociclib was dosed orally once daily.

SMILES	IC50 [1] [µM]	IC50 [4] [µM]	IC50 ([6]; MCF-7 cells, 2 hours) [µM]	IC50 [8] [µM]	IC50 [10] [µM]	kinase inhibition profile [9]	further results
CC(C)[C@H](CO)Nc1nc(N[C@H]2CCN(S(C)(=O)=O)C2)c2ncn(C(C)C)c2n1 [Compound 20, (R)-2-((9-isopropyl-6-(((S)-1-(methylsulfonyl)pyrrolidin-3-yl)amino)-9H-purin-2-yl)amino)-3-methylbutan-1-ol]	0.224	0.188	–	2.52	0.665	broadly similar kinase inhibition profiles to Compound 6	IC50 [6]: > 30 µM; effect on cell cycle phase [11]: increased the population of cells in the G0 and G1 phases; activity and tolerability in xenograft model ([12]; OVCAR3 xenograft): active and well tolerated
CC(=O)c1c(C)c2cnc(Nc3ccc(N4CCNCC4)cn3)nc2n(C2CCCC2)c1=O [Palbociclib, reference compound]	–	–	–	–	–	–	induction of senescence [15]: no effect was observed; % INHIBITION (end of dosing) [16]: 46%; % INHIBITION (end of dosing) [17]: 49%; % INHIBITION ([12]; Palbociclib at 50 mg/kg orally once daily, 28 days): 9%

Now from value to compound, other results behind:

IC50 [1] [µM]	IC50 [4] [µM]	IC50 ([6]; MCF-7 cells, 2 hours) [µM]	IC50 [8] [µM]	IC50 [10] [µM]	SMILES	kinase inhibition profile [9]	further results
0.053	0.034	1.7	0.514	–	O=S(=O)(c1ncc[nH]1)N1C[C@@H](F)[C@H](Nc2nc(N[C@@H](CO)C3CC3)nc3c2ncn3C(F)F)C1 (relative stereo) [Example 61, (R)-2-((6-(((3R*,4R*)-1-((1H-imidazol-2-yl)sulfonyl)-4-fluoropyrrolidin-3-yl)amino)-9-(difluoromethyl)-9H-purin-2-yl)amino)-2-cyclopropylethan-1-ol]	–	IC50 [2]: 0.005 µM; IC50 [3]: 0.017 µM; IC50 [5]: 0.8 µM; IC50 [7]: 0.115 µM
0.242	0.133	> 29.1	9.15	0.592	CC[C@H](Nc1nc(N[C@H]2CCN(S(=O)(=O)NC)C2)c2ncn(CC)c2n1)[C@@H](C)O [Example 44, (S)-3-((9-ethyl-2-(((2R,3S)-2-hydroxypentan-3-yl)amino)-9H-purin-6-yl)-amino)-N-methylpyrrolidine-1-sulfonamide]	broadly similar kinase inhibition profiles to Compound 6	–
0.441	–	> 30	–	1.4	CC[C@H](Nc1nc(N[C@H]2CCN(S(=O)(=O)c3ccn[nH]3)C2)c2ncn(CC)c2n1)[C@@H](C)O [Example 62, (2R,3S)-3-((6-(((S)-1-((1H-pyrazol-5-yl)sulfonyl)pyrrolidin-3-yl)amino)-9-ethyl-9H-purin-2-yl)amino)pentan-2-ol]	broadly similar kinase inhibition profiles to Compound 6	solubility at 24 h [13]: > 1000 µM; secondary pharmacology profile [14]: broadly similar secondary pharmacology to Compound 6

— patent US20250197425A1, “2,6,9-TRISUBSTITUTED PURINES” (ASTRAZENECA AB, priority 2022, published 2025)
